From patent US20200276187A1, “SYSTEMS AND METHODS FOR A[…]-INDUCED EUPHORIA” (Purdue Pharma L.P., priority 2014, published 2020)

Test system: rats
Assay: Conditioned Place Preference (CPP) animal model of opioid-induced euphoria
Settings: subcutaneous, 6 conditioning days of 30 min sessions, preference assessed on day 8, time in drug-paired minus vehicle-paired chamber
Protocol: It was administered in a volume of 2 ml/kg. […] The oxycodone was administered as the hydrochloride salt form and was dissolved in saline. The subcutaneous volume for each was 2 ml/kg.
For this Example, a 6 day unbiased, counterbalanced paradigm was employed. Innate preference was tested on day 1 (preconditioning day or baseline). On this day, naïve animals (rats) had free access to all three compartments for 30 minutes. The time spent in each chamber was automatically recorded. For conditioning sessions (days 2-7), animals were randomly assigned to compartment pairings for thirty minutes. During the first conditioning session (day 2), animals were randomly divided. […] Control animals received vehicle plus vehicle during each pairing. This conditioning procedure was replicated over five more days (thirty minute sessions for 6 total conditioning days). On day 8, preference was assessed. Each animal was allowed to roam freely about all three compartments for 30 minutes. The removable doors remained opened. The time spent in each compartment was automatically recorded. Conditioned Place Preference (“CPP”) (seconds) is represented as the difference between the time spent in the drug-paired and vehicle-paired chambers on the test day and is indicative of the rewarding properties associated with the compound(s) studied.

## COc1ccc2c3c1O[C@H]1C(=O)CC[C@@]4(O)[C@@H](C2)N(C)CC[C@]314 [oxycodone]
  Conditioned Place Preference (CPP) as compared to vehicle treated controls: produces a statistically significant CPP
